From ChEMBL document CHEMBL1949517, “Stylissamide X, a new proline-rich cyclic octapeptide as an inhibitor of cell migration, from an Indonesian marine sponge of Stylissa sp” (Bioorg Med Chem Lett, 2012)
The source made the active and inactive calls. No cut-off for these calls is given here. Where a SMILES comes first, the peptide text is derived from it.

Key:
[1] = test system: HeLa; assay: Anti-cell migration activity at human HeLa cells at 0.1 to 10 uM after 24 hrs by wound healing assay; assay type: functional, cell-based
[2] = Cytotoxicity against human HeLa cells assessed as cell viability at 10 uM after 24 hrs by MTT assay; assay type: cell-based; conditions: read-out: Activity
[3] = test system: HeLa; assay: Anti-cell migration activity at EGF-induced human HeLa cells at 0.1 to 10 uM after 24 hrs by Giemsa-staining based chemotaxicell chamber assay; assay type: functional

## CC[C@H](C)[C@@H]1NC(=O)[C@@H]2CCCN2C(=O)[C@H]([C@@H](C)O)NC(=O)[C@H](CC(C)C)NC(=O)[C@@H]2CCCN2C(=O)[C@H](Cc2ccccc2)NC(=O)[C@H](Cc2c[nH]c3ccccc23)NC(=O)[C@@H]2CCCN2C1=O [STYLISSAMIDE X] (cyclo(FPLTPIPW))
[1]
  Activity: Active
[2]
  viability at 24 h, 10 µM: > 75%
[3]
  Activity: Active
